# In EPA's ToxValDB 9.5 (doi:10.2903/j.efsa.2021.6237):
# Tests used:
# [1] = system: Anas platyrhynchos; settings: short-term; oral; feed; mortality
# [2] = system: Apis mellifera; settings: acute, mortality
# [3] = system: Canidae; settings: subchronic; duration: 90 days; oral; Dog Other; clinical chemistry
# [4] = system: Colinus virginianus; settings: acute; oral; mortality
# [5] = system: Daphnia magna; settings: chronic/long-term; duration: 21 days; reproduction
# [6] = system: Lepomis macrochirus; settings: acute; duration: 96 hours; mortality
# [7] = system: Oncorhynchus mykiss; settings: chronic/long-term; duration: 60 days; other
# [8] = system: Rattus norvegicus
# [9] = system: Tagia sp.; settings: chronic/long-term; duration: 56 days; reproduction
structure (smiles),measurement,setting,value
COP(=S)(OC)SCN1C(=O)c2ccccc2C1=O [Phosmet],LD50,[1],> 2320 mg/kg-day
same,LD50,[2]; dermal,0.22 µg/piece
same,LD50,"[2]; oral, unspecified",0.302 µg/piece
same,NOAEL,[3],1.88 mg/kg-day
same,LD50,[4],56.2 mg/kg-day
same,NOEC,[5],0.78 µg/L
same,LD50,[6],19.7 µg/L
same,NOEC,[7],3.2 µg/L
same,LD50,"[8]; acute, oral, mortality",113 mg/kg-day
same,NOAEL,"[8]; chronic, duration: 2 years, clinical chemistry",1.8 mg/kg-day
same,NOAEL,"[8]; developmental, development",10 mg/kg-day
same,NOAEL,[8]; reproduction developmental,1 mg/kg-day
same,NOAEL,"[8]; subchronic, duration: 90 days, oral, clinical chemistry",1.88 mg/kg-day
same,NOEC,[9],2.96 mg/kg
